Results on 7 molecules are retold here after US9486461B2, “Methods and compositions for inducing apoptosis by stimulating ER stress” (UNIVERSITY OF SOUTHERN CALIFORNIA, priority 2007, dated 2016).

For assay [1], the system named is human glioblastoma cells. The assay can be described thus: Induction of apoptosis in human glioblastoma cells (FIG. 19). The class given is cell-based. The source says:
In the figure, DMC stands for 4-[5-(2,5-dimethylphenyl)-3-(trifluoromethyl)-1H-pyrazol-1-yl]benzenesulfonamide; DBrC stands for 4-[5-(2,5-dibromophenyl)-3-(trifluoromethyl)-1H-pyrazol-1-yl]benzenesulfonamide; and DTF3C stands for 4-[5-(2,5-ditrifluoromethylphenyl)-3-(trifluoromethyl)-1H-pyrazol-1-yl]benzenesulfonamide.

The test system of assay [2] is U251 glioblastoma cells. Put plainly: MTT assay, U251. The class given is cell-based, human. The following applies: U251, 48 hours, concentrations of up to 100 μmol/L. How it is done:
U251 glioblastoma cells were treated with different drugs, and various parameters of cell growth and cell death were comparatively analyzed. As controls, cells remained either non-treated (Co) or were treated with the solvent DMSO alone. (FIG. 8A) Cells were treated with 30 or 50 μM DMC for 48 hours and the effects on cell growth/survival and on cell death were determined by various assays. […] Below the three panels, the expression levels of the ER stress indicators CHOP, GRP78, and caspase 4 at the end of the 48 hour drug treatment is shown, as determined by Western blot analysis with specific antibodies (actin served as a loading control. (FIG. 8B) Cells were treated with various concentrations of different drugs for 48 hours, as indicated, and cell death was measured with the cell death ELISA kit. (FIG. 8C) Cells were treated with DMC or various coxibs and traditional NSAIDs for 48 hours, as indicated, and cell growth and survival was determined with the conventional MTT assay (control, non-treated cells were set at 100%). MTT assays were performed in 96-well plates with the use of 3.0-8.0×10^3 cells per well as described in detail elsewhere (34). In parallel, the expression levels of CHOP and GRP78 protein were determined by Western blot analysis. […]
3-(4,5-Dimethylthiazol-2-yl)-2,5-diphenyltetrazolium bromide (MTT) assays were performed in 96-well plates with the use of 3.0×10^3 to 8.0×10^3 cells per well as described in detail elsewhere (19).

In assay [3] the test system is cytoplasmic calcium levels in U251 cells. The assay can be described thus: Cytoplasmic calcium imaging (Fura-2/AM). The class given is cell-based, human. The following applies: 100 μmol/L of each drug, Fura-2/AM loaded cells. How it is done:
(A) U251 cells were treated with DMC or various coxibs and NSAIDs, and changes in intracellular calcium levels were recorded as described in Materials & Methods. […] Arrows indicate timepoint of drug addition. […] Essentially similar results were also obtained with the LN229 cell line.
The cells were loaded by incubating them with […] Fura-2/AM (Invitrogen) for 30 min at room temperature in external solution containing 138 mmol/L NaCl, 5.6 mmol/L KCl, 1.2 mmol/L MgCl2, 2.6 mmol/L CaCl2, 10 mmol/L HEPES, and 4 mmol/L glucose (pH 7.4). After loading, the cells were rinsed and transferred to the imaging setup. The cells were treated with individual drugs for 10 s, whereas fluorescence was elicited with the excitation wavelength alternating between 350 and 380 nm, using a Polychromator V (TILL Photonics GmbH, Grafelfing, Germany) to provide illumination via a Zeiss Axiovert 100 microscope with a Zeiss Fluar 40 oil objective (Carl Zeiss, Jena, Germany). Images were captured using a Cascade 512B CCD camera (Photometrics, Tucson, Ariz.) controlled with MetaFluor software (Molecular Devices, Sunnyvale, Calif.) at 0.5 Hz acquisition frequency. Ratios of the images obtained at 350 and 380 nm excitation were used to show changes in the cytoplasmic calcium concentration, according to the principles developed by Grynkiewicz et al. (31).

The test system of assay [4] is U251 glioblastoma cells. The assay can be described thus: Cell death ELISA, U251. The class given is cell-based, human. Particulars: U251, 48 hours, concentrations of up to 100 μmol/L. How it is done: U251 glioblastoma cells were treated with different drugs, and various parameters of cell growth and cell death were comparatively analyzed. As controls, cells remained either non-treated (Co) or were treated with the solvent DMSO alone. (FIG. 8A) Cells were treated with 30 or 50 μM DMC for 48 hours and the effects on cell growth/survival and on cell death were determined by various assays. […] Below the three panels, the expression levels of the ER stress indicators CHOP, GRP78, and caspase 4 at the end of the 48 hour drug treatment is shown, as determined by Western blot analysis with specific antibodies (actin served as a loading control. (FIG. 8B) Cells were treated with various concentrations of different drugs for 48 hours, as indicated, and cell death was measured with the cell death ELISA kit. (FIG. 8C) Cells were treated with DMC or various coxibs and traditional NSAIDs for 48 hours, as indicated, and cell growth and survival was determined with the conventional MTT assay (control, non-treated cells were set at 100%). MTT assays were performed in 96-well plates with the use of 3.0-8.0×10^3 cells per well as described in detail elsewhere (34). In parallel, the expression levels of CHOP and GRP78 protein were determined by Western blot analysis.
Apoptosis in cell cultures in vitro was determined by using the Cell Death Detection ELISA kit (Roche Diagnostics, Indianapolis, Ind.) according to the manufacturer's instructions. This immunoassay specifically detects the histone region (H1, H2A, H2B, H3, and H4) of mononucleosomes and oligonucleosomes that are released during apoptosis. Ninety-six-well plates were seeded with 1,000 cells per well and read at 405 nm in a Microplate Autoreader (Model EL 311 SX; Bio-Tek Instruments, Inc., Winooski, Vt.).
(In general: ELISA stands for enzyme-linked immunosorbent assay.)

The test system of assay [5] is CHOP, GRP78, caspase 4 in U251 glioblastoma cells. Put plainly: Western blot of ER stress indicators in U251 cells. The class given is cell-based, human. How it is done: U251 glioblastoma cells were cultured in the presence of 1 μM thapsigargin (Tg) or 60 μM DMC for various times, as indicated. Total cell lysates were prepared and analyzed by Western blot with specific antibodies to the ER stress proteins GRP78, CHOP, and caspase 4 (Casp 4). Actin was used as a loading control.
Shown are (A) time kinetics at 50 μM of each drug, and (B) concentration dependence after 15 hours of incubation.
Shown are (FIG. 7A) time kinetics at 50 μM of each drug, and (FIG. 7B), concentration dependence after 15 hours of incubation.
U251 glioblastoma cells were cultured for 24 hours in the presence of increasing concentrations of (A) bortezomib (BZM) or (B) DMC. Total cell lysates were analyzed by Western blot with specific antibodies to ubiquitin, GRP78, CHOP, and caspase 4. Actin was used as a loading control.
Total cell lysates were prepared by lysis of cells with radioimmunoprecipitation assay buffer (28), and protein concentrations were determined using the bicinchoninic acid protein assay reagent (Pierce, Rockford, Ill.). For Western blot analysis, 50 Ag of each sample were processed as described (29). The primary antibodies were purchased from Cell Signaling Technologies (Beverly, Mass.), Cayman Chemical (Ann Arbor, Mich.), or Santa Cruz Biotechnology, Inc. (Santa Cruz, Calif.) and used according to the manufacturer's recommendations. The secondary antibodies were coupled to horseradish peroxidase and detected by chemiluminescence using the SuperSignal West substrate from Pierce. All immunoblots were repeated at least once to confirm the results.
Total cell lysates were prepared and analyzed by Western blot analysis as described earlier (19). Immunohistochemical analysis of protein expression in tumor tissues was performed with the use of the Vectastain avidin-biotin complex method kit (Vector Laboratories) as described previously (32). The primary antibodies were purchased from Cell Signaling Technology or Santa Cruz Biotechnology, Inc. and used according to the manufacturers' recommendations. All immunoblots and stainings were repeated at least once to confirm the results.
(A western blot detects proteins with antibodies after separation by electrophoresis.)

Structures are written as SMILES. Entries after “also recorded” stand apart in the source; their conditions may differ.

Take `NS(=O)(=O)c1ccc(-n2nc(C(F)(F)F)cc2-c2cc(Br)ccc2Br)cc1` [DBrC, 4-[5-(2,5-dibromophenyl)-3-(trifluoromethyl)-1H-pyrazol-1-yl]benzenesulfonamide]: the “relative ability to induce apoptosis / cell killing effect compared to DMC” value in assay [1] was “surprisingly potent cell killing effect”.

`NS(=O)(=O)c1ccc(-n2nc(C(F)(F)F)cc2-c2cc(C(F)(F)F)ccc2C(F)(F)F)cc1` [DTF3C, 4-[5-(2,5-ditrifluoromethylphenyl)-3-(trifluoromethyl)-1H-pyrazol-1-yl]benzenesulfonamide]: in assay [1], the “relative ability to induce apoptosis / cell killing effect compared to DMC” value was “surprisingly potent cell killing effect; also recorded: most potent compound”.

Regarding `CC(C(=O)O)c1ccc(-c2ccccc2)c(F)c1` (stereo not drawn) [flurbiprofen], the “detectable effect on cell growth and survival (MTT)” value (from here on “detectable effect”) in assay [2] is listed as “none”. Besides, the “elevation of cytoplasmic calcium levels” value in assay [3] is given as “none”. Besides, in assay [4], the “induction of cell death/apoptosis (cell death ELISA)” value (shortened to “induction of cell death/apoptosis”) was “did not induce apoptosis”.

As to `C/C=C(/C)C(=O)O[C@H]1C(C)=C2[C@H]([C@@H]1OC(=O)CCCCCCC)[C@@](C)(OC(C)=O)C[C@H](OC(=O)CCC)[C@@]1(O)[C@H]2OC(=O)[C@@]1(C)O` [thapsigargin], the “time at which activation (cleavage) of caspase-4 was first noted” value in assay [5] (U251, 1 μM thapsigargin or 60 μM DMC) is reported as approximately 24 h. In assay [5] (U251, 1 μM thapsigargin or 60 μM DMC, prominent increase at 6 h and thereafter), the “CHOP and GRP78 expression levels” value is “substantially elevated”.

Turning to `Cc1onc(-c2ccccc2)c1-c1ccc(S(N)(=O)=O)cc1` [valdecoxib, 4-[5-Methyl-3-phenylisoxazol-4-yl]-benzenesulfonamide], in assay [2], the “detectable effect” value was “none”. In assay [3], the “elevation of cytoplasmic calcium levels” value was “none”. Also, the “CHOP expression, time kinetics” value in assay [5] (U251, 50 μmol/L, 4 h up to 24 h) is given as “neither rofecoxib nor valdecoxib at the same concentration resulted in any detectable CHOP expression”. For the same molecule, the “increase in CHOP or GRP78 protein, concentration dependence” value in assay [5] (U251, 15 hours, concentrations up to 75 or 100 μmol/L) is “neither rofecoxib nor valdecoxib was able to stimulate any detectable increase”. Also, the “induction of cell death/apoptosis” value in assay [4] was “did not induce apoptosis”.

As to `COc1ccc2c(c1)c(CC(=O)O)c(C)n2C(=O)c1ccc(Cl)cc1` [indomethacin], the “detectable effect” value in assay [2] is “none”. Further, in assay [3], the “elevation of cytoplasmic calcium levels” value was “none”. Besides, in assay [4], the “induction of cell death/apoptosis” value was “did not induce apoptosis”.

Regarding `CC1=C(CC(=O)O)c2cc(F)ccc2/C1=C\c1ccc([S+](C)[O-])cc1` (stereo not drawn) [sulindac], in assay [2], the “detectable effect” value is listed as “none”. In addition, in assay [3], the “elevation of cytoplasmic calcium levels” value was “none”. For the same molecule, the “induction of cell death/apoptosis” value in assay [4] is “did not induce apoptosis”.
